# Measured values reported in paper PMC9851200, “Multiparameter phenotypic screening for endogenous TFEB and TFE3 translocation identifies novel chemical series modulating lysosome function” (Autophagy, 2022).
# What was measured:
# Type in all cases: binding
# [1] = target: kinases (KINOMEscan panel) (Homo sapiens, UniProt P07333); details: NEW KINOMEscan
# [2] = target: kinases (KINOMEscan panel) (Homo sapiens, UniProt P42336, H1047Y); details: kinase PIK3CA(H1047Y); NEW KINOMEscan
# [3] = target: T1, kinases (KINOMEscan panel) (Homo sapiens, UniProt P51813); details: BMX; NEW KINOMEscan
# T1 sequence (P51813 1-675): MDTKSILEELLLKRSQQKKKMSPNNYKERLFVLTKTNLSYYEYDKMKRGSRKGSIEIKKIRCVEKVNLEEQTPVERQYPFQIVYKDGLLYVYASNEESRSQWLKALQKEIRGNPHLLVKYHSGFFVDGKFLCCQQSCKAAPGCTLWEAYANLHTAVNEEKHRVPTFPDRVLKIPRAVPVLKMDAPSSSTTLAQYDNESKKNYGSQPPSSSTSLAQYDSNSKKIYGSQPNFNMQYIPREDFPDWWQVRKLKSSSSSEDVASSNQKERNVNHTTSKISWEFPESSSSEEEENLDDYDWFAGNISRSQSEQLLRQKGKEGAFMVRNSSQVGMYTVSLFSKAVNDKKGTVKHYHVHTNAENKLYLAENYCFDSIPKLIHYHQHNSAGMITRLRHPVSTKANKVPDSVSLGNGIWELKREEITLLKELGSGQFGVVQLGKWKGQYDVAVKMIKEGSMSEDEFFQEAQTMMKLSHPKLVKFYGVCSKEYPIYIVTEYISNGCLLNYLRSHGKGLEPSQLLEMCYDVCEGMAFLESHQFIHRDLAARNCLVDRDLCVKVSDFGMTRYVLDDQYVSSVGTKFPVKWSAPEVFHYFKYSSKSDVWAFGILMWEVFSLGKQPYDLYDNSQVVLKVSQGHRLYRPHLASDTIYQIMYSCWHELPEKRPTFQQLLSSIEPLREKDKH
# [4] = target: kinases (KINOMEscan panel) (Homo sapiens, UniProt Q07002); details: kinase CDK18; NEW KINOMEscan
# [5] = target: T2, kinases (KINOMEscan panel) (Homo sapiens, UniProt Q12866); details: kinase MERTK; NEW KINOMEscan
# T2 sequence (Q12866 21-999): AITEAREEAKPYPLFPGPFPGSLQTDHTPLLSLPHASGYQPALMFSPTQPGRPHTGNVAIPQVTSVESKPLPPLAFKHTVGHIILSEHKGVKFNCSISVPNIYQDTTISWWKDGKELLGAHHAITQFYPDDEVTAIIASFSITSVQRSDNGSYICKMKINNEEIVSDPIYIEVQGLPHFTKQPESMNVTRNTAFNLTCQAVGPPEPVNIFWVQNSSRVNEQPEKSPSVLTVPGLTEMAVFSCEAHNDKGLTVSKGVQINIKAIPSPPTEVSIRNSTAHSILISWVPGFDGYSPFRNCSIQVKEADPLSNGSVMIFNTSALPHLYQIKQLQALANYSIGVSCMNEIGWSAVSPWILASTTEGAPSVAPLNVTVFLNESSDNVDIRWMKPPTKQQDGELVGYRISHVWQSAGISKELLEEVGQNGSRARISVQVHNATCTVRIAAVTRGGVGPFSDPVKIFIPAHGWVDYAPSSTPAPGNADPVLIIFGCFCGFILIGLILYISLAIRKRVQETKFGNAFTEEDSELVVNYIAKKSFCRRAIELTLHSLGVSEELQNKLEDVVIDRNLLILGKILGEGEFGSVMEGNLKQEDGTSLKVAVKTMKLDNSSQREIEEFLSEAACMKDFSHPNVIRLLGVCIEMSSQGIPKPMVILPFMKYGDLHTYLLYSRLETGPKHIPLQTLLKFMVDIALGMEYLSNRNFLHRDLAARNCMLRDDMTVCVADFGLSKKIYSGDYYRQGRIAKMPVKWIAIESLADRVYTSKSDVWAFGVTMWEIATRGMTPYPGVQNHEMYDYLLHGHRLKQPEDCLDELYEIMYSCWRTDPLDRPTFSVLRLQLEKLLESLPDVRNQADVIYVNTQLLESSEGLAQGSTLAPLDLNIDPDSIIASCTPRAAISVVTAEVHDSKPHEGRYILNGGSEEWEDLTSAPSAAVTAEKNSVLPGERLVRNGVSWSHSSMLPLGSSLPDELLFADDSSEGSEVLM
# [6] = target: T3, kinases (KINOMEscan panel) (Homo sapiens, UniProt Q8WTQ7); details: kinase GRK7; NEW KINOMEscan
# T3 sequence (Q8WTQ7 1-553): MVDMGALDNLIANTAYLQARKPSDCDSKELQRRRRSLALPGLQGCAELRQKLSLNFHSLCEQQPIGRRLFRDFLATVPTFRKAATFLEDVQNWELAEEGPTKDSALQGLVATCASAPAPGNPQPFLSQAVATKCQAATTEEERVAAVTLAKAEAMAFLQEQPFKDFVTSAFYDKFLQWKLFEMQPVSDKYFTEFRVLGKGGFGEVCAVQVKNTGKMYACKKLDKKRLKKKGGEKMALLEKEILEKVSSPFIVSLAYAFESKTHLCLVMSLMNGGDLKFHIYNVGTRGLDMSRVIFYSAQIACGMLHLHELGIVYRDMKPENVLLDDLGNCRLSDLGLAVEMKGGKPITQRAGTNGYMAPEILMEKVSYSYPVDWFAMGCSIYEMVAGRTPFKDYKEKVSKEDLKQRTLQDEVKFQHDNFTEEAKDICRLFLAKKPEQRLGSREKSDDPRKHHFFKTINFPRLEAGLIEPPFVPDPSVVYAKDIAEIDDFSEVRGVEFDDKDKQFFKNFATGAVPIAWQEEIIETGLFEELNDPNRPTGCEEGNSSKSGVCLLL
# [7] = target: kinases (KINOMEscan panel) (Homo sapiens, UniProt Q9UPE1); details: SRPK3; NEW KINOMEscan
# Chain of kinases (KINOMEscan panel) (Homo sapiens, UniProt Q9UPE1) (Q9UPE1 whole entry): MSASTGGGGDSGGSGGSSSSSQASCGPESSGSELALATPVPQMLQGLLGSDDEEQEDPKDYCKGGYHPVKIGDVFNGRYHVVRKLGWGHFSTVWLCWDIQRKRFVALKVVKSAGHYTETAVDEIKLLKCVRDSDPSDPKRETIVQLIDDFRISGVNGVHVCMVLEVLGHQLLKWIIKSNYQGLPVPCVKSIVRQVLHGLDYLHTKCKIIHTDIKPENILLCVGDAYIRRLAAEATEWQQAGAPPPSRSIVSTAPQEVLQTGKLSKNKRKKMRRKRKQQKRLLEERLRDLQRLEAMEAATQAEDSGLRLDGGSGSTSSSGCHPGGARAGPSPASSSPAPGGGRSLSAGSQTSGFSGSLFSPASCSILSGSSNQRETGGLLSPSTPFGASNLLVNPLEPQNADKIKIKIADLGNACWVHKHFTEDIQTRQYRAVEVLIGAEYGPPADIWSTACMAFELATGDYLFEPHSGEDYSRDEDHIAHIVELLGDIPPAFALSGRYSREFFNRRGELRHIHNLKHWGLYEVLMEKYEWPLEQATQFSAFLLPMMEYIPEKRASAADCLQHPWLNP
# Chain of kinases (KINOMEscan panel) (Homo sapiens, UniProt P07333) (P07333 20-972): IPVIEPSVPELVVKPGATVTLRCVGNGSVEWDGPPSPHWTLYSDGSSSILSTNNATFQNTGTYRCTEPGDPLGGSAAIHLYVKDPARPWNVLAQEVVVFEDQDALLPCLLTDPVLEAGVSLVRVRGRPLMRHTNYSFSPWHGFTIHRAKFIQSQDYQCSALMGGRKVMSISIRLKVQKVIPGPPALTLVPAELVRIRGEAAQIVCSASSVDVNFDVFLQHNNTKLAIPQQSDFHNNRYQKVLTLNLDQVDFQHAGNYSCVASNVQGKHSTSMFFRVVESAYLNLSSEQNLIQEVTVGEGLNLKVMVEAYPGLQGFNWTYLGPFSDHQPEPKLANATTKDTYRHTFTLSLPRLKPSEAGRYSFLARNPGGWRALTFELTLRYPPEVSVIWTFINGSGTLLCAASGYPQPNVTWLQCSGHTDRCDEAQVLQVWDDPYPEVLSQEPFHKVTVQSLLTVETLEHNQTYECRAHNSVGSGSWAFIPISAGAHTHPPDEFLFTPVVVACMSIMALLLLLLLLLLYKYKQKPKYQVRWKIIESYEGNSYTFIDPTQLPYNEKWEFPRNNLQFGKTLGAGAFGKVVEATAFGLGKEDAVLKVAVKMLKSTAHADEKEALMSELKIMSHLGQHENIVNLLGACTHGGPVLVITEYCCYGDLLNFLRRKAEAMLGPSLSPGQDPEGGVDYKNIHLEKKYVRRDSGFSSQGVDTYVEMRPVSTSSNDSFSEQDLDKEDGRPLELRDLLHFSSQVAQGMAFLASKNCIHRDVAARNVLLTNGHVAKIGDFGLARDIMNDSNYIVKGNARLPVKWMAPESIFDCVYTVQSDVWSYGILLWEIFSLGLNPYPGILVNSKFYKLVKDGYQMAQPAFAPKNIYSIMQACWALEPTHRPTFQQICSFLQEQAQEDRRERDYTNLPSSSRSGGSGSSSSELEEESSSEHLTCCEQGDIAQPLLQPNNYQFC
# Chain of kinases (KINOMEscan panel) (Homo sapiens, UniProt Q07002) (Q07002 whole entry): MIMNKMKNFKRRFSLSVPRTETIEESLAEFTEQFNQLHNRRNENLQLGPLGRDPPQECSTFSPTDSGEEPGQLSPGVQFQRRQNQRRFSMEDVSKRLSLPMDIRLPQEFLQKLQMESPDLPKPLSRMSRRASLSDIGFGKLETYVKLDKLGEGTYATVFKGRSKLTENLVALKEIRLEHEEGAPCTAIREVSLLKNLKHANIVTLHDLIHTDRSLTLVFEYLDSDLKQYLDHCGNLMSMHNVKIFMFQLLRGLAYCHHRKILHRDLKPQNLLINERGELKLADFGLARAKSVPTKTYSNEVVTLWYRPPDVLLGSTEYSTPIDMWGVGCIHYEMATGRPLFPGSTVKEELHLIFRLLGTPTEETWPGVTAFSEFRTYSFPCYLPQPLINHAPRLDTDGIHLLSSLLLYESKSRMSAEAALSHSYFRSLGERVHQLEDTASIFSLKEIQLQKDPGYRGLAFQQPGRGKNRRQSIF
# Chain of kinases (KINOMEscan panel) (Homo sapiens, UniProt P42336, H1047Y) (P42336 whole entry H1047Y): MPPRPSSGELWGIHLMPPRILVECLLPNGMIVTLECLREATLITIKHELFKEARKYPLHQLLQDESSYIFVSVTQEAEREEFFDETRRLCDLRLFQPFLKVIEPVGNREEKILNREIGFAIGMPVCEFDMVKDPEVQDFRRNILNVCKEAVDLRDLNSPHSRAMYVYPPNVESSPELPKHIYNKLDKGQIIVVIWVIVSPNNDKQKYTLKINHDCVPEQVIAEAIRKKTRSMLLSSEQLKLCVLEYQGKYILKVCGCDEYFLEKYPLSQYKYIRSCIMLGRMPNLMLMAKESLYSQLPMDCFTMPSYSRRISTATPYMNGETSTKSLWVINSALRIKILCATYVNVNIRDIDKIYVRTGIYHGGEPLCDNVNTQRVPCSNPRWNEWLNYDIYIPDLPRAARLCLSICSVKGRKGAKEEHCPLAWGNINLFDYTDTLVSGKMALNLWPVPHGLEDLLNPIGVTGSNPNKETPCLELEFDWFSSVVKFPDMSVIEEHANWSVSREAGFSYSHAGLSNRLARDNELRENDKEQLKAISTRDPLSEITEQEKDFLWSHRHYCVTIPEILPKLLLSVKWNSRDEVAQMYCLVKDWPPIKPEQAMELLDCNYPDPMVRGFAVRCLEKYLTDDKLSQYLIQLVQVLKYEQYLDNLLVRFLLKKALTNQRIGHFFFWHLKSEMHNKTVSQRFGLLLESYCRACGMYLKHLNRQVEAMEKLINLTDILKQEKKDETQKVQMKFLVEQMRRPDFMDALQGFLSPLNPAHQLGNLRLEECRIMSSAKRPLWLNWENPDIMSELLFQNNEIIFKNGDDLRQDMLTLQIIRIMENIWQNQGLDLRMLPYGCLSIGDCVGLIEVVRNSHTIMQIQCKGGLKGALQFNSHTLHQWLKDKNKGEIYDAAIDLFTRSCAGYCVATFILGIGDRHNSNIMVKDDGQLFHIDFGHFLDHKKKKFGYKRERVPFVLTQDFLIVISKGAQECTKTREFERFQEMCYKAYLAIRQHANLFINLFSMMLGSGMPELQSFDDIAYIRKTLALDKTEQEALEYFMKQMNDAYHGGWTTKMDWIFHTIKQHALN
SMILES,KINOMEscan CSF1R [1],KINOMEscan CSF1R-autoinhibited [1],KINOMEscan PIK3CA(H1047Y) [2],KINOMEscan BMX [3],KINOMEscan CDK18 [4],KINOMEscan MERTK [5],KINOMEscan GRK7 [6],KINOMEscan SRPK3 [7]
Cc1cccc(-c2nc(Nc3ccc4nn(C)cc4c3)c3ccccc3n2)n1 [NK167],16,0,0,0,0,0,0,0
Cc1cccc(-c2nc(N(C)c3ccc4ncsc4c3)c3ccccc3n2)n1 [NK-161],18,26,4,6,0,11,5,1
